In US20080221021A1, “Novel Corticotropin-Releasing Factor Receptor 1 (Crfr1) Agonist” (Max-Planck-Gesellschaft Zur Forderung Der, priority 2004, published 2008):
“Also recorded” adds a separate entry of the source. Where no end group is shown, it is not given here.

How the values were obtained:
mCRFR2β = molecular target: T1, mCRFR2β (Mus musculus, UniProt Q60748); assay: Competition binding scintillation proximity assay, mCRFR2β membranes; conditions: for affinity for CRFR2: binding analysis, in words
T1 construct: expressed in transfected cells
T1 sequence (Q60748 1-431 isoform Q60748-2): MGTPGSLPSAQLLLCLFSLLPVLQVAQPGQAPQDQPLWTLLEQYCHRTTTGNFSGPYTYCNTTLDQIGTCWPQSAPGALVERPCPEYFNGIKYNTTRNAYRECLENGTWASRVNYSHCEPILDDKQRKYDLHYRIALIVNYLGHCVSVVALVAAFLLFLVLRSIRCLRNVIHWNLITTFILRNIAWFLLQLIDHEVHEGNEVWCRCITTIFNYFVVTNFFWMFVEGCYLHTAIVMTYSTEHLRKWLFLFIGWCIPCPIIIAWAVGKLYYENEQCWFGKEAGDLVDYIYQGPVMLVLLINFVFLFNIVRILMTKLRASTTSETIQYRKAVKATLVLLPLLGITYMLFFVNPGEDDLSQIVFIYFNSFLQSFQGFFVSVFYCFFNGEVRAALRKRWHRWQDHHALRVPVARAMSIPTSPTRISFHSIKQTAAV
Protocol: (§1) Crude membrane fractions were prepared from human embryonic kidney (HEK) 293 cells stably expressing either cloned rat CRFR1α(rCRFR1) or mouse CRFR2β (mCRFR2β) as described (20). Rat CRFBP (rCRFBP) was produced in HEK 293 cells stably transfected with cDNA coding for rCRFBP C-terminally fused with a His6 sequence as described (36). The scintillation proximity assays (SPA) for binding analysis of CRFR and CRFBP have been already described in detail (21, 22). For competition binding assays of rCRFR1 and rCRFBP, [^125I-Tyr^0]h/rCRF was used as radiolabeled peptide, whereas [^125I-Tyr^0]Svg was employed for mCRFR2β.

rCRFR1 [1] = molecular target: T2, rCRFR1 (Rattus norvegicus, UniProt P35353); assay: Competition binding scintillation proximity assay, rCRFR1 membranes; conditions: for selectivity for CRFR1: CRFR1 vs CRFR2, in words
T2 construct: expressed in transfected cells
T2 sequence (P35353 24-415): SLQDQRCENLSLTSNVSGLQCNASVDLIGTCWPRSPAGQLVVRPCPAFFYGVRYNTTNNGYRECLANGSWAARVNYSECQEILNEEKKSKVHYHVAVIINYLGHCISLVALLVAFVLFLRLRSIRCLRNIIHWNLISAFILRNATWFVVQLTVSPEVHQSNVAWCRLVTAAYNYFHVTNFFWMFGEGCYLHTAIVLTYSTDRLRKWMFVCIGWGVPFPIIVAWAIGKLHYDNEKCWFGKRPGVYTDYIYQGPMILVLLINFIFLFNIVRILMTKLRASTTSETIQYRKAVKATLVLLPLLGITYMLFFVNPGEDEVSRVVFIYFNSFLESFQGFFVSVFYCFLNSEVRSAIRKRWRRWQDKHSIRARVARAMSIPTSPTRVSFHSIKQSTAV
Protocol: as §1

rCRFBP = molecular target: T3, rCRFBP (Rattus norvegicus, UniProt P24388); assay: Competition binding scintillation proximity assay, rCRFBP; conditions: binding analysis, in words
T3 construct: His6 (C); made in house; host or cells: HEK 293 cells, stably transfected
T3 sequence (P24388 25-322): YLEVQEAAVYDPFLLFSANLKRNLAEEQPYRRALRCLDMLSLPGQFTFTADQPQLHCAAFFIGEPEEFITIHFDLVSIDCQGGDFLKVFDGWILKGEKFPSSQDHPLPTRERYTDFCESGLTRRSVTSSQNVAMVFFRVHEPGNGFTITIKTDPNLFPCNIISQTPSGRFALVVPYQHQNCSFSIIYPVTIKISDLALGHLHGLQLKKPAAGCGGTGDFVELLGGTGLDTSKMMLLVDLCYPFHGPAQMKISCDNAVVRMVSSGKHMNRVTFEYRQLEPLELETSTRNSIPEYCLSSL
Protocol: as §1

C57BL/6J mice = assay: Elevated plus-maze test, intraseptal (i.s.) injection; type: in vivo, mouse; conditions: 400 ng aSvg-30 i.s. 15 min before oCRF
Protocol: Nine-week old male C57BL/6J (Centre D'Elevage Janvier, Sultzfeld, France) were individually housed in macrolon cages according to the recommendations of the Society for Laboratory Animal Science (Germany). All experiments were carried out in accordance with the European Council Directive (86/609/EEC) with the permission of the Animal Protection Law enforced by the District Government of Braunschweig, State of Lower Saxony, Germany, which is in full agreement with the APA ethical guidelines. All efforts were made to minimize animal suffering. The number of mice per group was 9-11.
All peptides were dissolved in aCSF except for the CRFR2-selective antagonist antisauvagine-30 (aSvg-30) (20) that was initially dissolved in 10 mM aqueous acetic acid and diluted with the same volume of two-fold concentrated aCSF. The final pH of the peptide solutions was 7.4. The exact peptide concentration of the injection solutions was determined by amino acid analysis with a Beckman HPLC analyzer system 6300. […]
The elevated plus-maze (EPM) behavior of C57BL/6J mice cannulated in the lateral ventricles or lateral intermediate septal area (23) was investigated 30 min after injection of the CRFR1 agonist under investigation for 5 min in the EPM test (24). […] The behavior of the mice was recorded by a video camera connected to a PC and analyzed by the Technical & Scientific Equipment software VIDEOMOT 2. […]

CRFR1 = conditions: cited from earlier work
rCRFR1 [2] = molecular target: T2, rCRFR1; assay: Agonist-induced intracellular cAMP accumulation in HEK 293 cells producing rCRFR1; type: cell-based; conditions: ratio of biological potencies (cAMP)
Protocol: The biological potency of cortagine and OCRF was evaluated by the determination of the EC50 values for agonist-induced intracellular accumulation of cAMP in HEK 293 cells producing either rCRFR1 or mCRFR2β.
The HEK 293 cells were plated into 24 well cell culture plates and stimulated as described (21) using increasing concentrations of the agonists under investigation. Intracellular cAMP was measured with the Biotrak™ cAMP [^125I] SPA system (Amersham Pharmacia Biotech) according to the manufacturer's product manual.

[3] = Maximum solubility in aCSF by amino acid analysis; type: physicochemical; conditions: aCSF, pH 7.4; read-out: maximal solubility cmax
Protocol: After dissolving the peptides in artificial cerebrospinal fluid (aCSF; 124 mM NaCl, 26.4 mM NaHCO3, 10 mM glucose, 3.3 mM KCl, 2.5 mM CaCl2 , 2.4 mM MgSO4 , 1.2 mM KH2PO4) at pH=7.4, the maximum solubility cmax was determined by amino acid analysis as described (21). The isoelectric point of the peptides was determined by isoelectric focusing (IEF) as described (21) with a Bio-Rad IEF cell system using Bio-Rad IEF strips in the pH range 3-10.

[4] = type: physicochemical
Protocol: A high solubility under physiological conditions is a crucial prerequisite especially for compounds to be injected into the rodent brain. […] Both peptides were soluble in a concentration range of up to 1000 μM (FIG. 6), so that there was no limitation in view of the agonist doses typically used in behavioral experiments. […] Consequently, solutions of cortagine to be used in the pharmacological assays were prepared in phosphate buffered saline (PBS; pH=7.4).

## [h/rCRF^1-13]x[Svg^13-29]x[h/rCRF^31-41] (SEEPPISLDLTFHLLRKMIEIEKQEKEKQQAHSNRKLMEII; ends and bridges not checked) [compound 4, chimeric peptide of h/rCRF and Svg domains]
mCRFR2β
  affinity for CRFR2: not
rCRFR1 [1]; binding analysis
  selectivity for CRFR1: not

## [Ala^41]h/rCRF (SEEPPISLDLTFHLLREVLEMARAEQLAQQAHSNRKLMEIA; ends and bridges not checked; UniProt P06850 154-194, looked up, variant I41A) [h/rCRF analog with Ala in position 41]
rCRFR1 [1]; binding analysis
  selectivity for CRFR1 in comparison to h/rCRF: increase in CRFR1 selectivity by a factor of three

## [Svg^1-29]x[h/rCRF^31-41] (QGPPISIDLSLELLRKMIEIEKQEKEKQQAHSNRKLMEII; ends and bridges not checked) [compound 7, chimeric peptide of h/rCRF and Svg domains]
rCRFR1 [1]; binding analysis
  selectivity for CRFR1: not

## [Ala^40] [Svg^1-12]x[h/rCRF^14-30]x[Svg^30-40] [compound 8]
rCRFBP
  affinity to CRFBP: high affinity
mCRFR2β; compound 8 vs compound 6, compound 9 vs compound 8
  change in affinity for CRFR2 in comparison to parent peptide: only a slight increase
rCRFR1 [1]; binding analysis
  selectivity for CRFR1: highly selective for CRFR1
rCRFR1 [1]; compound 8 vs compound 6, compound 9 vs compound 8, Nle20 analog vs compound 9
  change in affinity to CRFR1 in comparison to parent peptide: more than five-fold increase

## anti-sauvagine-30 [aSvg-30]
C57BL/6J mice
  antagonism of anxiogenic effects of 100 ng oCRF: completely prevented; also recorded: fully antagonized

## CCCCN(CC)c1nc(C)nc2c1c(C)cn2-c1c(C)cc(C)cc1C [CP-154,526]
CRFR1
  locomotion in the EPM test: nonspecific increase in locomotion

## CC[C@H](C)[C@H](NC(=O)[C@H](CC(=O)O)NC(=O)[C@H](CC(C)C)NC(=O)[C@H](CC(C)C)NC(=O)[C@H](CCCCN)NC(=O)[C@H](CCCNC(=N)N)NC(=O)[C@H](CC(N)=O)NC(=O)[C@H](CO)NC(=O)[C@H](Cc1c[nH]cn1)NC(=O)[C@H](C)NC(=O)[C@H](CCC(N)=O)NC(=O)[C@H](CCC(N)=O)NC(=O)[C@H](C)NC(=O)[C@H](CC(C)C)NC(=O)[C@H](CCC(N)=O)NC(=O)[C@H](CC(=O)O)NC(=O)[C@H](C)NC(=O)[C@H](CCCCN)NC(=O)[C@@H](NC(=O)[C@H](CCSC)NC(=O)[C@H](CCC(=O)O)NC(=O)[C@H](CC(C)C)NC(=O)[C@@H](NC(=O)[C@H](CCC(=O)O)NC(=O)[C@H](CCCNC(=N)N)NC(=O)[C@H](CC(C)C)NC(=O)[C@H](CC(C)C)NC(=O)[C@H](Cc1c[nH]cn1)NC(=O)[C@H](Cc1ccccc1)NC(=O)[C@@H](NC(=O)[C@H](CC(C)C)NC(=O)[C@H](CC(=O)O)NC(=O)[C@H](CC(C)C)NC(=O)[C@H](CO)NC(=O)[C@@H](NC(=O)[C@@H]1CCCN1C(=O)[C@@H]1CCCN1C(=O)[C@H](CCC(=O)O)NC(=O)[C@H](CCC(N)=O)NC(=O)[C@@H](N)CO)[C@@H](C)CC)[C@@H](C)O)C(C)C)[C@@H](C)O)C(=O)N[C@@H](C)C(N)=O [oCRF, ovine CRF, reference compound]
rCRFR1 [1]; ratio of binding affinities
  CRFR1-selectivity over CRFR2β, IC50(mCRFR2)/IC50(rCRFR1): 89
rCRFR1 [2]
  CRFR1-selectivity over CRFR2β, EC50(mCRFR2)/EC50(rCRFR1): 19
[3]
  solubility: ≤ 1000 µM
[4]
  solubility in 10 mM aqueous acetic acid: soluble in 10 mM aqueous acetic acid

## [h/rCRF^1-30]x[Svg^30-40] (SEEPPISLDLTFHLLREVLEMARAEQLAQQAANNRLLLDTI; ends and bridges not checked) [compound 5, chimeric peptide of h/rCRF and Svg domains]
mCRFR2β
  affinity for CRFR2: low affinity
rCRFR1 [1]; binding analysis
  selectivity for CRFR1: clear selectivity for CRFR1

## CC[C@H](C)[C@H](NC(=O)[C@@H](NC(=O)[C@H](CC(=O)O)NC(=O)[C@H](CC(C)C)NC(=O)[C@H](CC(C)C)NC(=O)[C@H](CC(C)C)NC(=O)[C@H](CCCNC(=N)N)NC(=O)[C@H](CC(N)=O)NC(=O)[C@H](CC(N)=O)NC(=O)[C@H](C)NC(=O)[C@H](C)NC(=O)[C@H](CCC(N)=O)NC(=O)[C@H](CCC(N)=O)NC(=O)[C@H](CCCCN)NC(=O)[C@H](CCC(=O)O)NC(=O)[C@H](CCCCN)NC(=O)[C@H](CCC(=O)O)NC(=O)[C@H](CCC(N)=O)NC(=O)[C@H](CCCCN)NC(=O)[C@H](CCC(=O)O)NC(=O)[C@@H](NC(=O)[C@H](CCC(=O)O)NC(=O)[C@@H](NC(=O)[C@H](CCSC)NC(=O)[C@H](CCCCN)NC(=O)[C@H](CCCNC(=N)N)NC(=O)[C@H](CC(C)C)NC(=O)[C@H](CC(C)C)NC(=O)[C@H](CCC(=O)O)NC(=O)[C@H](CC(C)C)NC(=O)[C@H](CO)NC(=O)[C@H](CC(C)C)NC(=O)[C@H](CC(=O)O)NC(=O)[C@@H](NC(=O)[C@H](CO)NC(=O)[C@@H](NC(=O)[C@@H]1CCCN1C(=O)[C@@H]1CCCN1C(=O)CNC(=O)[C@@H]1CCC(=O)N1)[C@@H](C)CC)[C@@H](C)CC)[C@@H](C)CC)[C@@H](C)CC)[C@@H](C)O)C(N)=O [Svg, sauvagine, reference compound]
rCRFR1 [1]; binding analysis
  selectivity for CRFR1: non-selective

## [Svg^1-12 ]x[h/rCRF^14-30]x[Svg^30-40] (QGPPISIDLSLELLREVLEMARAEQLAQQAANNRLLLDTI; not fully specified (residue 1); ends and bridges not checked) [compound 6]
mCRFR2β
  affinity for CRFR2: low affinity to CRFR2
rCRFR1 [1]; binding analysis
  selectivity for CRFR1: selective for CRFR1
